# Laboratory results reported in patent US20070270586A1, “NOVEL CRYSTAL OF 7-[2-[(2-AMINOTHIAZOL-4-YL)-2-HYDROXYIMINOACETAMIDE-3-VINYL-3-CEPHEM-4-CARBOXYLIC ACID (SYN ISOMER) AND METHOD FOR PREPARATION THEREOF” (priority 2003, published 2007).
# Experiment: speed of dissolution in water (10 mg crystal in 50 mL ion exchanged water, 60 rpm, concentration by liquid chromatography)
# Format: physicochemical
# Settings: for concentration (elution %): 10 mg in 50 mL ion exchanged water, 60 revolutions per minute
# Procedure: The anhydrous form of a B type crystal of 7-[2-(2-aminothiazol-4-yl)-2-hydroxyiminoacetamide]-3-vinyl-3-cephem-4-carboxylic acid (syn isomer) obtained in Example 2, and the A type crystal of a compound (I) obtained by deposition of a crystal from a sodium bicarbonate aqueous solution having a pH value of 3.6 and a temperature of 22° C. in Example 1 were used, and the speed of dissolution thereof in water was measured.
# Namely, each 10 mg of the above-mentioned A type crystal or B type crystal was put into 50 mL of ion exchanged water and dissolved at a revolution per minute of 60, and the concentrations of each crystal in the solution with the lapse of time were measured by liquid chromatography.
concentration (elution %) (lapse time 110 min),concentration (elution %) (lapse time 340 min),concentration (elution %) (lapse time 700 min),Compound,solubility in water compared with conventional A type crystal (conclusion from Table 5)
32.7 elution %,39.7 elution %,63.7 elution %,"C=CC1=C(C(=O)O)N2C(=O)C(NC(=O)/C(=N\O)c3csc(N)n3)C2SC1 (stereo not drawn) [A type crystal, 7-[2-(2-aminothiazol-4-yl)-2-hydroxyiminoacetamide]-3-vinyl-3-cephem-4-carboxylic acid (syn isomer), reference compound]",
72.8 elution %,78.4 elution %,91.1 elution %,"C=CC1=C(C(=O)O)N2C(=O)C(NC(=O)/C(=N\O)c3csc(N)n3)C2SC1 (stereo not drawn) [B type crystal, 7-[2-(2-aminothiazol-4-yl)-2-hydroxyiminoacetamide]-3-vinyl-3-cephem-4-carboxylic acid (syn isomer)]",more excellent solubility in water as compared with a conventional A type crystal
